From patent EP3860599B1, “(+)-ALPHA-DIHYDROTETRABENAZINE DOSAGE REGIMEN FOR TREATING MOVEMENT DISORDERS” (Adeptio Pharmaceuticals Limited, priority 2018, dated 2020)

How the values were obtained:
amphetamine-induced rats = assay: Open field locomotor activity test in amphetamine-induced rats (Example 2, Studies 1, 2 and 4); type: in vivo
Protocol: All animal experiments were carried out according to the National Institute of Health (NIH) guidelines for the care and use of laboratory animals, and approved by the National Animal Experiment Board, Finland. Male CD (Charles River Laboratories, Germany) at weight range of 200-250 g (165-200 g upon arrival) were used for the experiments. Animals were housed at a standard temperature (22 ± 1°C) and in a light-controlled environment (lights on from 7 am to 8 pm) with ad libitum access to food and water.
Locomotor activity of the rats was tested in open field arena. The open field test was performed during the rat light cycle and under a normal lighting evenly distributed to the test chambers. The paths of the rats were recorded by activity monitor (Med. Associates Inc.).
Dosing the vehicle, vehicle-amphetamine, (+)-α-DHTBZ or risperidone was done prior to LMA test. The rats were placed in the centre of the arena, and the path was recorded for 60 minutes.
Animals were grouped as follows: • Group 1: 10 rats treated with Vehicle (t= 0 min) and Vehicle (t= 30 min) • Group 2: 10 rats treated with Vehicle (t= 0 min) and Amphetamine (t= 30 min) • Group 3: 10 rats treated with (+)-α-DHTBZ 0.5 mg/kg (t=0 min) and Amphetamine (t= 30 min) • Group 4: 10 rats treated with (+)-α-DHTBZ 1 mg/kg (t=0 min) and Amphetamine (t= 30 min) • Group 5: 10 rats treated with (+)-α-DHTBZ 1.5 mg/kg (t=0 min) and Amphetamine (t= 30 min) • Group 6: 10 rats treated with (+)-α-DHTBZ 2 mg/kg (t=0 min) and Amphetamine (t= 30 min) • Group 7: 10 rats treated with risperidone 1 mg/kg (t=0 min) and Amphetamine (t= 30 min)
Animals were grouped as follows: • Group 1: 10 rats treated with Vehicle (t= 0 min) and Vehicle (t= 30 min) • Group 2: 10 rats treated with Vehicle (t= 0 min) and Amphetamine (t= 30 min) • Group 3: 10 rats treated with (+)-α-DHTBZ 0.1 mg/kg (t=0 min) and Amphetamine (t=30 min) • Group 4: 10 rats treated with (+)-α-DHTBZ 0.25 mg/kg (t=0 min) and Amphetamine (t=30 min) • Group 5: 10 rats treated with risperidone 1 mg/kg (t=0 min) and Amphetamine (t= 30 min)
Animals were grouped as follows: • Group 1: 10 rats treated with Vehicle (t= 0 min) and Vehicle (t= 30 min) • Group 2: 10 rats treated with Vehicle (t= 0 min) and Amphetamine (t= 30 min) • Group 3: 10 rats treated with (+)-α-DHTBZ 1 mg/kg (t=0 min) and Amphetamine (t=30 min) • Group 4: 10 rats treated with (+)-α-DHTBZ 1.5 mg/kg (t=0 min) and Amphetamine (t=30 min) • Group 5: 10 rats treated with Valbenazine 1 mg/kg (t=0 min) and Amphetamine (t=30 min) • Group 6: 10 rats treated with Valbenazine 1.5 mg/kg (t=0 min) and Amphetamine (t=30 min) • Group 7: 10 rats treated with risperidone 1 mg/kg (t=0 min) and Amphetamine (t= 30 min)

[1] = Plasma concentrations after oral dosing (solution in apple juice) of human volunteers, Example 1A; type: in vivo; settings: for concentration at 1 h / concentration at 1.5 h / concentration at 2 h / concentration at 3 h / concentration at 0.5 h: human, plasma, po; for concentration at 0.5 h / plasma concentrations: 0.5 h
Protocol: (+)-α-Dihydrotetrabenazine in defined amounts was administered by oral dosing (as a solution in apple juice) to six human volunteers. […] At 60 minutes after drug administration, PET scans were initiated and these were stopped at 120 minutes after drug administration. The experiment was carried out at dosages of 7.5 mg, 15 mg and 22.5 mg. […]

[2] = Study 1 conclusions, all the tested doses (0.5, 1, 1.5 and 2 mg/kg)
[3] = 7.5 mg, subject 1 (112 kg), 7.5 mg oral
[4] = 7.5 mg, subject 2 (76 kg), 7.5 mg oral
[5] = 7.5 mg, subject 3 (129 kg), 7.5 mg oral
[6] = 7.5 mg, subject 4 (59 kg), 7.5 mg oral
[7] = 7.5 mg, subject 5 (91 kg), 7.5 mg oral
[8] = 7.5 mg, subject 6 (68 kg), 7.5 mg oral
[9] = 15 mg, subject 1 (112 kg), 15 mg oral
[10] = 15 mg, subject 2 (76 kg), 15 mg oral
[11] = 15 mg, subject 3 (129 kg), 15 mg oral
[12] = 15 mg, subject 4 (59 kg), 15 mg oral
[13] = 15 mg, subject 5 (91 kg), 15 mg oral
[14] = 15 mg, subject 6 (68 kg), 15 mg oral
[15] = 22.5 mg, subject 1 (112 kg), 22.5 mg oral
[16] = 22.5 mg, subject 2 (76 kg), 22.5 mg oral
[17] = 22.5 mg, subject 3 (129 kg), 22.5 mg oral
[18] = 22.5 mg, subject 5 (91 kg), 22.5 mg oral
[19] = 22.5 mg, subject 6 (68 kg), 22.5 mg oral

In the case of `COc1cc2c(cc1OC)[C@H]1C[C@@H](O)[C@H](CC(C)C)CN1CC2` [(+)-α-dihydrotetrabenazine, (R,R,R)-3-isobutyl-9,10-dimethyloxy-1,3,4,5,7,11b-hexahydro-2H-pyrido[2,1-a]isoquinolin-2-ol], the “locomotor activity when compared to the vehicle-amphetamine group” value (amphetamine-induced rats; [2]) is reported as “lower locomotor activity”, the “stereotypic behaviour when compared to the vehicle-amphetamine group” value (amphetamine-induced rats; [2]) is reported as “reduced stereotypic behaviour” and the “locomotor activity when compared to the vehicle-amphetamine group” value (amphetamine-induced rats; Study 2 conclusions, 0.25 mg/kg) is reported as “lower locomotor activity”. For the same molecule, the “stereotypic behaviour when compared to the vehicle-amphetamine group” value (amphetamine-induced rats; Study 2 conclusions, both the tested doses (0.1 mg/kg and 0.25 mg/kg)) was “reduced stereotypic behaviour”, the “locomotor activity when compared to the vehicle-amphetamine group and the corresponding dose of Valbenazine” value (amphetamine-induced rats; Study 4 conclusions, 1 mg/kg and 1.5 mg/kg) was “lower locomotor activity” and the “stereotypic behaviour when compared to the vehicle-amphetamine group and the corresponding dose of Valbenazine” value (amphetamine-induced rats; Study 4 conclusions, both the tested doses (1 mg/kg and 1.5 mg/kg)) was “reduced stereotypic behaviour”. It also gave a concentration at 1 h [1, 3] of 0.94 ng/mL, a concentration at 1.5 h [1, 3] of 2.39 ng/mL and a concentration at 2 h [1, 3] of 2.44 ng/mL. The concentration at 3 h [1, 3] was 3.01 ng/mL, the concentration at 0.5 h [1, 4] was 0.531 ng/mL and the concentration at 1 h [1, 4] was 13.7 ng/mL. It also gave a concentration at 1.5 h [1, 4] of 10.8 ng/mL, a concentration at 2 h [1, 4] of 14 ng/mL and a concentration at 3 h [1, 4] of 22.2 ng/mL. The concentration at 0.5 h [1, 5] was 0.216 ng/mL, the concentration at 1 h [1, 5] was 4.35 ng/mL and the concentration at 1.5 h [1, 5] was 6.91 ng/mL. The concentration at 2 h [1, 5] was 5.03 ng/mL, the concentration at 3 h [1, 5] was 6.96 ng/mL and the concentration at 0.5 h [1, 6] was 8.43 ng/mL. The concentration at 1 h [1, 6] was 15 ng/mL, the concentration at 1.5 h [1, 6] was 20.7 ng/mL and the concentration at 2 h [1, 6] was 17.6 ng/mL. The concentration at 3 h [1, 6] was 19.6 ng/mL, the concentration at 0.5 h [1, 7] was 6.68 ng/mL and the concentration at 1 h [1, 7] was 9.8 ng/mL. The concentration at 1.5 h [1, 7] was 13.5 ng/mL, the concentration at 2 h [1, 7] was 10.7 ng/mL and the concentration at 3 h [1, 7] was 11.2 ng/mL. It also gave a concentration at 1 h [1, 8] of 3.77 ng/mL, a concentration at 1.5 h [1, 8] of 3.06 ng/mL and a concentration at 2 h [1, 8] of 4.33 ng/mL. It also gave a concentration at 3 h [1, 8] of 9.18 ng/mL, a concentration at 0.5 h [1, 9] of 4.02 ng/mL and a concentration at 1 h [1, 9] of 11.1 ng/mL. The concentration at 1.5 h [1, 9] was 10.7 ng/mL, the concentration at 2 h [1, 9] was 10.2 ng/mL and the concentration at 3 h [1, 9] was 10.6 ng/mL. The concentration at 0.5 h [1, 10] was 7.99 ng/mL, the concentration at 1 h [1, 10] was 22.8 ng/mL and the concentration at 1.5 h [1, 10] was 46.4 ng/mL. For the same molecule, the concentration at 2 h [1, 10] was 35.7 ng/mL, the concentration at 3 h [1, 10] was 46.5 ng/mL and the concentration at 0.5 h [1, 11] was 1.2 ng/mL. The concentration at 1 h [1, 11] was 14.3 ng/mL, the concentration at 1.5 h [1, 11] was 17.9 ng/mL and the concentration at 2 h [1, 11] was 12 ng/mL. The concentration at 3 h [1, 11] was 18.2 ng/mL, the concentration at 0.5 h [1, 12] was 26.7 ng/mL and the concentration at 1 h [1, 12] was 53.8 ng/mL. It also gave a concentration at 1.5 h [1, 12] of 42.5 ng/mL, a concentration at 2 h [1, 12] of 53.3 ng/mL and a concentration at 3 h [1, 12] of 60.2 ng/mL. For the same molecule, the concentration at 0.5 h [1, 13] was 15.6 ng/mL, the concentration at 1 h [1, 13] was 34.2 ng/mL and the concentration at 1.5 h [1, 13] was 27.1 ng/mL. It also gave a concentration at 2 h [1, 13] of 31.8 ng/mL, a concentration at 3 h [1, 13] of 27.1 ng/mL and a concentration at 0.5 h [1, 14] of 5.41 ng/mL. The concentration at 1 h [1, 14] was 10.6 ng/mL, the concentration at 1.5 h [1, 14] was 16.1 ng/mL and the concentration at 2 h [1, 14] was 17.4 ng/mL. The concentration at 3 h [1, 14] was 14.9 ng/mL, the concentration at 0.5 h [1, 15] was 9.61 ng/mL and the concentration at 1 h [1, 15] was 18 ng/mL. The concentration at 1.5 h [1, 15] was 16.8 ng/mL, the concentration at 2 h [1, 15] was 14.9 ng/mL and the concentration at 3 h [1, 15] was 13.2 ng/mL. The concentration at 0.5 h [1, 16] was 5.23 ng/mL, the concentration at 1 h [1, 16] was 21.8 ng/mL and the concentration at 1.5 h [1, 16] was 36.2 ng/mL. For the same molecule, the concentration at 2 h [1, 16] was 40.2 ng/mL, the concentration at 3 h [1, 16] was 51.8 ng/mL and the concentration at 0.5 h [1, 17] was 9.04 ng/mL. The concentration at 1 h [1, 17] was 34.7 ng/mL, the concentration at 1.5 h [1, 17] was 29.8 ng/mL and the concentration at 2 h [1, 17] was 26.3 ng/mL. For the same molecule, the concentration at 3 h [1, 17] was 17.3 ng/mL, the concentration at 0.5 h [1, 18] was 55.3 ng/mL and the concentration at 1 h [1, 18] was 45.1 ng/mL. For the same molecule, the concentration at 1.5 h [1, 18] was 46.2 ng/mL, the concentration at 2 h [1, 18] was 41.9 ng/mL and the concentration at 3 h [1, 18] was 42.5 ng/mL. It also gave a concentration at 0.5 h [1, 19] of 5.58 ng/mL, a concentration at 1 h [1, 19] of 8.01 ng/mL and a concentration at 1.5 h [1, 19] of 5.87 ng/mL. The concentration at 2 h [1, 19] was 12.5 ng/mL, the concentration at 3 h [1, 19] was 18.7 ng/mL and the plasma concentrations ([1]; subject 1 (112 kg), 7.5 mg oral) was “BLQ”. For the same molecule, the plasma concentrations ([1]; subject 6 (68 kg), 7.5 mg oral) was “BLQ”.
